Common to all, as to assay type: cell-based
One experiment deals with Alternaria solani. Nature of the experiment: in vitro 96-well micro-titration test on Alternaria solani spores. To be noted: for EC95 (%): A. solani, Table 22, ingredient alone in water.
For experiment [1], the system named is Septoria tritici (Zymoseptoria tritici). Briefly: in vitro 96-well micro-titration test on Septoria tritici / Zymoseptoria tritici. Particulars: for EC95 (%): Z. tritici, Table 23, ingredient alone in water.
Another experiment has as its system Plasmopara viticola. Briefly: in vitro antifungal action of single ingredients on Plasmopara viticola. From the text: In Vitro Results Showing the Syngergistic Action of Yucca Juice with the Other Compounds of the Composition According to the Invention on A. solani, Z. tritici, and Plasmopara viticola,
The following tables show in vitro the synergistic antifungal action between yucca juice and the other compounds of the composition of the invention on various pathogens. The concentrations given are as a mass %. The solutions tested as aqueous solutions.
Mo denotes sodium molybdate, Bo denotes boron ethanolamine.

[2] abbreviates: Concentration 0.05% mass of the stated aqueous solution.

Molecules are shown by their SMILES. Where only a bound is given, the exact number is not on record here.

Take `O=S(=O)([O-])[O-].[Cu+2]` [Cu 1.5%]: the “EC95 (%)” value (in the experiment on Alternaria solani; in experiment [1]) was more than 10% in each case. The “inhibition of A. solani, ingredient alone in water” value (shortened to “inhibition of A. solani”) with Alternaria solani (setting [2]) is given as −2.8%; with Alternaria solani (Concentration 0.50%), −1.4%; in the experiment on Alternaria solani (Concentration 1.00%), −1.9%; in the experiment on Alternaria solani (Concentration 2.00%), −1.8%; in the experiment on Alternaria solani (Concentration 3.00%) it was −4.9%; with Alternaria solani (Concentration 6.00%) it was −1.8%. For the same compound, the “inhibition of A. solani” value with Alternaria solani (Concentration 10.00%) is −2.9%. Besides, the “inhibition of Z. tritici, ingredient alone in water” value (shortened to “inhibition of Z. tritici”) is 11.9% in experiment [1] (Concentration 0.05%); 17.3% in experiment [1] (Concentration 0.50%); 22.1% in experiment [1] (Concentration 1.00%); 23.6% in experiment [1] (Concentration 2.00%); 20.9% in experiment [1] (Concentration 3.00%); 24.1% in experiment [1] (Concentration 6.00%). For the same compound, the “inhibition of Z. tritici” value in experiment [1] (Concentration 10.00%) amounted to 28.2%.

Regarding `O=S(=O)([O-])[O-].[Fe+2]` [Fe 4%], the “EC95 (%)” value in the experiment with Alternaria solani worked out at 2.3%; in experiment [1], 2.86%. In addition, the “inhibition of A. solani” value in the experiment on Alternaria solani (setting [2]) is reported as −4.7%; in the experiment with Alternaria solani (Concentration 0.50%) it was −4.3%; in the experiment with Alternaria solani (Concentration 1.00%), −0.4%; with Alternaria solani (Concentration 2.00%), 49.6%; in the experiment on Alternaria solani (Concentration 3.00%) it was 100.0%; with Alternaria solani (Concentration 6.00%), 100.0%. In the experiment on Alternaria solani (Concentration 10.00%), the “inhibition of A. solani” value stood at 100.0%. For the same compound, the “inhibition of Z. tritici” value in experiment [1] (Concentration 0.05%) is 9.8%; in experiment [1] (Concentration 0.50%), 37.1%; in experiment [1] (Concentration 1.00%), 38.8%; in experiment [1] (Concentration 2.00%), 54.9%; in experiment [1] (Concentration 3.00%) it was 100.0%; in experiment [1] (Concentration 6.00%) it was 100.0%. Moreover, in experiment [1] (Concentration 10.00%), the “inhibition of Z. tritici” value was 100.0%. Besides, the “efficacy against Z. tritici (glume blotch) in vitro” value in experiment [1] (dose of 0.5%) is given as approximately 37%.

Take `[Cl-].[K+]` [KCl 0.24%]: the “EC95 (%)” value (with Alternaria solani; in experiment [1]) was more than 10% each time. The “inhibition of A. solani” value with Alternaria solani (setting [2]) was 1.2%; in the experiment on Alternaria solani (Concentration 0.50%), −3.6%; in the experiment with Alternaria solani (Concentration 1.00%), −3.9%; with Alternaria solani (Concentration 2.00%) it was −8.9%; with Alternaria solani (Concentration 3.00%) it was −1.3%; with Alternaria solani (Concentration 6.00%) it was −1.2%. The “inhibition of A. solani” value in the experiment on Alternaria solani (Concentration 10.00%) is on record as −2.9%. The “inhibition of Z. tritici” value in experiment [1] (Concentration 0.05%) was found to be 4.7%; in experiment [1] (Concentration 0.50%) it was 2.2%; in experiment [1] (Concentration 1.00%), 1.4%; in experiment [1] (Concentration 2.00%), 0.1%; in experiment [1] (Concentration 3.00%), 0.3%; in experiment [1] (Concentration 6.00%) it was 7.9%. For the same compound, the “inhibition of Z. tritici” value in experiment [1] (Concentration 10.00%) was 3.8%. Besides, the “in vitro activity against Plasmopara viticola, ingredient alone in water” value (“in vitro activity” below) turned out to be 10.83% in the experiment with Plasmopara viticola (Concentration 0.05%); 51.35% with Plasmopara viticola (Concentration 0.50%); 69.10% in the experiment with Plasmopara viticola (Concentration 1.00%); 75.81% in the experiment on Plasmopara viticola (Concentration 2.00%); 83.20% in the experiment on Plasmopara viticola (Concentration 3.00%); 94.91% in the experiment with Plasmopara viticola (Concentration 6.00%). In addition, the “in vitro activity” value in the experiment with Plasmopara viticola (Concentration 10.00%) amounted to 97.43%.

For `O=S(=O)([O-])[O-].[Mg+2]` [Mg 0.5%], the “EC95 (%)” value (with Alternaria solani; in experiment [1]) was more than 10% each time. Besides, the “inhibition of A. solani” value is −1.2% with Alternaria solani (setting [2]); −8.0% in the experiment on Alternaria solani (Concentration 0.50%); −2.2% in the experiment on Alternaria solani (Concentration 1.00%); −1.8% with Alternaria solani (Concentration 2.00%); −1.3% with Alternaria solani (Concentration 3.00%); −2.5% in the experiment with Alternaria solani (Concentration 6.00%). Further, the “inhibition of A. solani” value with Alternaria solani (Concentration 10.00%) is on record as −2.4%. Further, the “inhibition of Z. tritici” value in experiment [1] (Concentration 0.05%) is on record as 0.7%; in experiment [1] (Concentration 0.50%), 0.9%; in experiment [1] (Concentration 1.00%), 2.3%; in experiment [1] (Concentration 2.00%) it was −2.9%; in experiment [1] (Concentration 3.00%) it was −0.1%; in experiment [1] (Concentration 6.00%), 11.3%. In addition, the “in vitro activity” value was found to be 13.88% in the experiment with Plasmopara viticola (Concentration 0.05%); 43.93% with Plasmopara viticola (Concentration 0.50%); 53.33% in the experiment with Plasmopara viticola (Concentration 1.00%); 69.80% in the experiment with Plasmopara viticola (Concentration 2.00%); 76.51% in the experiment with Plasmopara viticola (Concentration 3.00%); 91.75% in the experiment on Plasmopara viticola (Concentration 6.00%). For the same compound, in the experiment on Plasmopara viticola (Concentration 10.00%), the “in vitro activity” value was 95.94%.

For the compound `O=S(=O)([O-])[O-].[Mn+2]` [Mn 3.7%], the “EC95 (%)” value (in the experiment on Alternaria solani; in experiment [1]) was more than 10% each time. Besides, the “inhibition of A. solani” value in the experiment on Alternaria solani (setting [2]) is on record as −2.3%; with Alternaria solani (Concentration 0.50%) it was 0.0%; in the experiment with Alternaria solani (Concentration 1.00%) it was 12.8%; with Alternaria solani (Concentration 2.00%), 15.1%; in the experiment with Alternaria solani (Concentration 3.00%), 17.6%; with Alternaria solani (Concentration 6.00%) it was 38.8%. Besides, the “inhibition of A. solani” value in the experiment on Alternaria solani (Concentration 10.00%) is recorded as 48.4%. For the same compound, the “inhibition of Z. tritici” value in experiment [1] (Concentration 0.05%) came out at 12.9%; in experiment [1] (Concentration 0.50%), 13.8%; in experiment [1] (Concentration 1.00%), 12.9%; in experiment [1] (Concentration 2.00%), 18.6%; in experiment [1] (Concentration 3.00%), 20.0%; in experiment [1] (Concentration 6.00%), 17.0%. The “inhibition of Z. tritici” value in experiment [1] (Concentration 10.00%) is 23.1%. For the same compound, the “in vitro activity” value turned out to be 31.02% in the experiment with Plasmopara viticola (Concentration 0.05%); 87.05% in the experiment on Plasmopara viticola (Concentration 0.50%); 94.13% with Plasmopara viticola (Concentration 1.00%); 97.24% in the experiment with Plasmopara viticola (Concentration 2.00%); 97.70% in the experiment on Plasmopara viticola (Concentration 3.00%); 97.72% with Plasmopara viticola (Concentration 6.00%). The “in vitro activity” value with Plasmopara viticola (Concentration 10.00%) was 97.79%.

With `O=S(=O)([O-])[O-].[Mn+2]` [Mn 7%], the “EC95 (%)” value in the experiment with Alternaria solani was 6.4%; in experiment [1] it was more than 10%. The “inhibition of A. solani” value is 0.0% in the experiment on Alternaria solani (setting [2]); 16.9% with Alternaria solani (Concentration 0.50%); 29.6% with Alternaria solani (Concentration 1.00%); 73.2% in the experiment with Alternaria solani (Concentration 2.00%); 89.4% with Alternaria solani (Concentration 3.00%); 94.5% with Alternaria solani (Concentration 6.00%). Further, the “inhibition of A. solani” value in the experiment with Alternaria solani (Concentration 10.00%) was 101.1%. Further, the “inhibition of Z. tritici” value came to 11.3% in experiment [1] (Concentration 0.05%); 27.6% in experiment [1] (Concentration 0.50%); 33.5% in experiment [1] (Concentration 1.00%); 28.7% in experiment [1] (Concentration 2.00%); 28.0% in experiment [1] (Concentration 3.00%); 29.0% in experiment [1] (Concentration 6.00%). Further, in experiment [1] (Concentration 10.00%), the “inhibition of Z. tritici” value amounted to 29.5%. In addition, the “in vitro activity” value in the experiment with Plasmopara viticola (Concentration 0.05%) came to 25.41%; in the experiment with Plasmopara viticola (Concentration 0.50%), 89.41%; in the experiment with Plasmopara viticola (Concentration 1.00%), 94.78%; in the experiment with Plasmopara viticola (Concentration 2.00%) it was 97.25%; with Plasmopara viticola (Concentration 3.00%), 97.53%; in the experiment on Plasmopara viticola (Concentration 6.00%), 97.69%. The “in vitro activity” value with Plasmopara viticola (Concentration 10.00%) was determined as 97.64%.

Turning to `[Na+].[Na+].[O]=[Mo](=[O])([O-])[O-]` [Mo 0.01%, sodium molybdate], the “EC95 (%)” value (with Alternaria solani; in experiment [1]) was more than 10% each time. Besides, the “inhibition of A. solani” value in the experiment with Alternaria solani (setting [2]) is 2.2%; in the experiment on Alternaria solani (Concentration 0.50%) it was −1.2%; in the experiment on Alternaria solani (Concentration 1.00%), −7.4%; in the experiment on Alternaria solani (Concentration 2.00%), −1.3%; with Alternaria solani (Concentration 3.00%), −1.8%; with Alternaria solani (Concentration 6.00%), −1.5%. Also, the “inhibition of A. solani” value in the experiment with Alternaria solani (Concentration 10.00%) is −0.4%. The “inhibition of Z. tritici” value in experiment [1] (Concentration 0.05%) was −1.7%; in experiment [1] (Concentration 0.50%), −1.1%; in experiment [1] (Concentration 1.00%), −2.3%; in experiment [1] (Concentration 2.00%) it was −2.2%; in experiment [1] (Concentration 3.00%), −1.8%; in experiment [1] (Concentration 6.00%), −1.6%. For the same compound, the “inhibition of Z. tritici” value in experiment [1] (Concentration 10.00%) was −2.2%. Also, the “in vitro activity” value in the experiment with Plasmopara viticola (Concentration 0.05%) is 15.33%; in the experiment with Plasmopara viticola (Concentration 0.50%), 46.43%; in the experiment with Plasmopara viticola (Concentration 1.00%) it was 53.15%; with Plasmopara viticola (Concentration 2.00%), 72.42%; in the experiment with Plasmopara viticola (Concentration 3.00%) it was 74.22%; in the experiment on Plasmopara viticola (Concentration 6.00%) it was 74.22%. Also, the “in vitro activity” value with Plasmopara viticola (Concentration 10.00%) turned out to be 96.02%.

(Values after US20260076372A1, “SPRAYABLE ANTIFUNGAL COMPOSITION FOR USE IN THE FIELD OF AGRICULTURE, AND ASSOCIATED METHOD AND USE” (GAIAGO, priority 2022, published 2026).)
